# Tests used:
# [1] = test system: CD34-stained blood vessels in MDA-B6 and MDA-pc3 tumors; assay: Anti-CD34 immunohistochemistry of xenograft tumors (blood vessel density); assay type: in vivo, NOD-SCID mice; conditions: KX2-391-treated MDA-B6 and MDA-pc3 tumors (FIG. 7B)
# Protocol: FIG. 7. Analysis of the SL interaction between EPHB6 and SRC in TNBC cells and murine xenografts. A. MDA-pc3 and MDA-B6 cells were injected into the mammary fat pad region of 4-6 weeks old NOD-SCID mice (1×10^6 cells per mouse). Mice with detectable tumors were treated twice per day with 5 mg/kg KX2-391 in DMSO/water solvent or solvent alone by oral feeding (at least 6 animals per each experimental condition). Tumor size was measured every 3 days and tumor volume was calculated with the equation: A/2*B^2, where A was long and B was short diameter of the tumor. The reduction in tumor growth in KX2-391-treated mice is presented as a percentage relative to matching solvent controls. The graph summarizes two independent experiments. Day 0 indicates the beginning of treatment with KX2-391 or matching solvent control. […] Four representative fields (at 3, 6, 9, and 12 o'clock) per each stained tumor section (one for each extracted tumor) were imaged at 100× magnification and the blood vessel density per each field was analyzed with the Image-Pro Premier software. […]
# For the immunohistochemical staining, tumors were dissected and fixed in 10% neutral- buffered formalin for 24-48 h. […] In each stained tumor section, 12, 3, 6 and 9 o'clock fields were imaged at 100× magnification and the density of stained blood vessels per field was quantified using the Image-Pro Premier software.
# [2] = test system: co-cultured MDA-B6 and MDA-pc3 cells; assay: Drug sensitivity assay with fluorescent co-cultured cells (flow cytometry), KX2-391; assay type: cell-based, human; conditions: GFP/RFP-labelled MDA-B6 and MDA-pc3 co-seeded in equal numbers, 25 nM, 72 h (FIGS. 4D, 4E)
# Protocol: FIG. 4. SL interaction between EPHB6 and SRC. A. MDA-pc3 and MDA-B6 cells were cultured in 96-well plates with the indicated concentrations of SU6656 or matching volumes of DMSO for 72 h. Cells were stained with resazurin and fluorescence was measured using a SpectraMax M5 plate reader to determine cell suppression. Five wells were analyzed per condition. […] B. MDA-pc3 and MDA-B6 cells were cultured in 96-well plates with the indicated concentrations of KX2-391 or matching volumes of DMSO for 72 h. Cells were stained with resazurin and fluorescence was measured using a SpectraMax M5 plate reader to determine cell suppression. Five wells were analyzed per condition. […] C. MDA-B6 and MDA-pc3 cells were transduced with lentivirus encoding pLD-GFP-Puro or pLD-RFP-Puro as indicated. Cells were selected with 2 μg/mL puromycin for 48 h, cultured in monolayer, and imaged by confocal microscopy at 100× magnification. […] Cells were collected and analyzed by flow cytometry and the FlowJo software. […] Cells were collected and analyzed by flow cytometry and the FlowJo software. […]
# For color assays, MDA-B6-GFP and MDA-pc3-RFP, or MDA-B6-RFP and MDA-pc3-GFP cells were co-seeded in equal numbers in 12-well plates at indicated cell densities. […] Treated cells were collected and quantitated by flow cytometry. Results were analyzed using the FlowJo software (FLOWJO LLC, Ashland, Oreg., USA).
structure (smiles),measurement,setting,value
O=C(Cc1ccc(-c2ccc(OCCN3CCOCC3)cc2)cn1)NCc1ccccc1 [KX2-391],neovascularization (CD34 staining) of treated EPHB6-positive vs EPHB6-negative tumors,[1],has not shown any differences in neovascularization
same,cell suppression in co-culture monitored by flow cytometry,[2],EPHB6-deficient cells are much less resistant to SRC inhibition

# Reference: patent US20190203253A1, “METHODS OF IDENTIFYING AND TREATING CANCER PATIENTS WITH AN EPHB6 DEFICIENCY” (University of Saskatchewan, priority 2016, published 2019)
